Experimental findings from ChEMBL document CHEMBL1128386, “Structure-activity relationships of milrinone analogues determined in vitro in a rabbit heart membrane Ca(2+)-ATPase model” (J Med Chem, 1995) are described below.

The species named for the experiment is Oryctolagus cuniculus. Description: Activity against [Ca2+]-ATPase assay in rabbit myocardial membrane. In kind it is cell membranes. The note with it: Myocardium.

Turning to `Cc1cnccc1-c1cnc(O)c(N)c1`, the Activity stood at 0.03 µM. Regarding `Cc1cnccc1-c1cnc(O)c(C#N)c1`, the Activity stood at 0.5 µM. On to `Nc1cc(-c2ccncc2)c[nH]c1=O`, for which the Activity turned out to be 1.4 µM. Consider `Cc1cnccc1-c1cc(C#N)c(O)nc1C`, for which the Activity worked out at 3.3 µM. Molecule `Cc1[nH]c(=O)c(C#N)cc1-c1ccncc1` returned an Activity of 10.7 µM. Then `Cc1nc(O)c(Br)cc1-c1ccncc1`, with 6.6 µM. The same measure for `Cc1nc(O)c(N)cc1-c1ccncc1`: 6 µM.
